Assay results taken from ChEMBL document CHEMBL1909046, “DrugMatrix in vitro pharmacology data”.
pIC50, pKi: −log10 of the molar value.

Columns and labels:
[1] = DRUGMATRIX: Atrial Natriuretic Factor (ANF) radioligand binding (ligand: [125I] ANF (rat)); assay type: cell membranes, Cavia porcellus, Dunkin-Hartley, Adrenal gland, Membrane; conditions: Not Active = under 50% inhibition at 10 µM
[2] = target: 5-hydroxytryptamine receptor 4 (Cavia porcellus, UniProt O70528); assay type: cell membranes, Dunkin-Hartley, Striatum, Membrane; also: in other assays of this panel Not Active means under 50% inhibition at 10 µM
[3] = target: T1, Thromboxane-A synthase (Homo sapiens, UniProt P24557); assay: biochemical; assay type: tissue-based, Platelet; conditions: for pIC50: read-out: IC50;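 as to all read-outs here: enzyme inhibition assay with PGH2 supplied as substrate; in other assays of this panel Not Active means under 50% inhibition at 10 µM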
T1 sequence (P24557 whole entry): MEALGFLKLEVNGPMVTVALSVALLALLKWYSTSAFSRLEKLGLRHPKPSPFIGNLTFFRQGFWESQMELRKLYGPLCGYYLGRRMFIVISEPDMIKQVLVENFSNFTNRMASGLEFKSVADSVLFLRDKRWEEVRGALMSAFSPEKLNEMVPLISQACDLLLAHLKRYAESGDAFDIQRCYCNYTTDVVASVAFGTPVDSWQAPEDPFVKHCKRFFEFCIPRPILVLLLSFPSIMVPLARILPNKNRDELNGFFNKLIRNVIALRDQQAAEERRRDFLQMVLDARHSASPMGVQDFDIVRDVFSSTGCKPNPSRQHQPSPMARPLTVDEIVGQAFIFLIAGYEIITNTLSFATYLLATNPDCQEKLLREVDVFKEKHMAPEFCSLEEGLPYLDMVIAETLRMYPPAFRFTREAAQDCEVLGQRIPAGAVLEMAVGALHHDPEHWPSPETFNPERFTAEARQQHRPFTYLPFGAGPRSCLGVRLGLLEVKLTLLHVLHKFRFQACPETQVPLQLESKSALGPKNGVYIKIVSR

[4] = target: T2, Receptor-type tyrosine-protein phosphatase C (Homo sapiens, UniProt P08575); design: species or system Escherichia coli;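 also: inhibition of CD45 enzyme activity measured using DiFMUP as substrate; in other assays of this panel Not Active means under 50% inhibition at 10 µM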
T2 sequence (P08575 whole entry): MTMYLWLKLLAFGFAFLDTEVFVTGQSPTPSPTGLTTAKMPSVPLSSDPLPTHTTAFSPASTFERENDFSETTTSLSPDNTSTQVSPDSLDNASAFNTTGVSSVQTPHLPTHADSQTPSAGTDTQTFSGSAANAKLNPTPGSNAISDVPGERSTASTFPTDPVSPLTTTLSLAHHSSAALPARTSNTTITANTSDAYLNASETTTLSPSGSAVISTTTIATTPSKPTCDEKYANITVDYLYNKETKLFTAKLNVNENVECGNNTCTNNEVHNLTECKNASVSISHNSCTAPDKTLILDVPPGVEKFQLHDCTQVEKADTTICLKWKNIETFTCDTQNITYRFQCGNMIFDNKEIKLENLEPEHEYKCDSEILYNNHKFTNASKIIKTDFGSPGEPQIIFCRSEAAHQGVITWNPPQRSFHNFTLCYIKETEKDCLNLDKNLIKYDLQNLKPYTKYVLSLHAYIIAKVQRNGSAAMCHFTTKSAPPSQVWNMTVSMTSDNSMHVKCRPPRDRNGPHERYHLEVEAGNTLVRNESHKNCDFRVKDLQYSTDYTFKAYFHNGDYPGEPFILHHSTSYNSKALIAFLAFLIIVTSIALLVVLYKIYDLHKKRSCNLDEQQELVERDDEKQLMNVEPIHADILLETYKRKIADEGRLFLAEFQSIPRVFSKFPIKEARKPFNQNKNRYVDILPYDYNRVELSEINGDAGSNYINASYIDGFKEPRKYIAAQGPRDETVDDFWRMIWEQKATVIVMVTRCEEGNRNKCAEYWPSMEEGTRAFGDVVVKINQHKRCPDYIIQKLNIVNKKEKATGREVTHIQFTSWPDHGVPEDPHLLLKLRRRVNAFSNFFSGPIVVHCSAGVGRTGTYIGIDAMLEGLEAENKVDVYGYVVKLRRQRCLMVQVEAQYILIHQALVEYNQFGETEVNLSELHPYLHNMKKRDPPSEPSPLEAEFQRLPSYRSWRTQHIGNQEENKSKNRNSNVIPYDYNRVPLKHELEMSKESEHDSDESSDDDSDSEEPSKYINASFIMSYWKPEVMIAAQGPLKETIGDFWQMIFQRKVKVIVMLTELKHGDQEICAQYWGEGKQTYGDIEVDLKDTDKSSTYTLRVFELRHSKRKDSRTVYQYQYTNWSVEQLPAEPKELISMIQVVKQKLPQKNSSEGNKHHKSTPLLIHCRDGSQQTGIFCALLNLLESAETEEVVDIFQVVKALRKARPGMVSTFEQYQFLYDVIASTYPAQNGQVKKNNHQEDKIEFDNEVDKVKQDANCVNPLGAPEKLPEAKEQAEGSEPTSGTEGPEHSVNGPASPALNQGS

[5] = target: T3, Adenosine receptor A3 (Homo sapiens, UniProt P0DMS8); assay type: cell membranes, CHO-K1, Membrane;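 also: radioligand binding assay with AB-MECA serving as the labeled ligand; in other assays of this panel Not Active means under 50% inhibition at 10 µM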
T3 sequence (P0DMS8 whole entry): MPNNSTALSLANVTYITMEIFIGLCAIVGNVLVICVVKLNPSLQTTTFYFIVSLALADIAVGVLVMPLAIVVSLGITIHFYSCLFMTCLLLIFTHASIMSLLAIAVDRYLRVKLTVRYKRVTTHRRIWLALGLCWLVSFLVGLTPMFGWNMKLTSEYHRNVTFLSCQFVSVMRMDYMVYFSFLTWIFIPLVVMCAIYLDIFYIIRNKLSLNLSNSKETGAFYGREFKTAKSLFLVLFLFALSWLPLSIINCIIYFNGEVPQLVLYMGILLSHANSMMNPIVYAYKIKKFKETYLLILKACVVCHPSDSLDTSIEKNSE

Sequence of 5-hydroxytryptamine receptor 4 (O70528 whole entry): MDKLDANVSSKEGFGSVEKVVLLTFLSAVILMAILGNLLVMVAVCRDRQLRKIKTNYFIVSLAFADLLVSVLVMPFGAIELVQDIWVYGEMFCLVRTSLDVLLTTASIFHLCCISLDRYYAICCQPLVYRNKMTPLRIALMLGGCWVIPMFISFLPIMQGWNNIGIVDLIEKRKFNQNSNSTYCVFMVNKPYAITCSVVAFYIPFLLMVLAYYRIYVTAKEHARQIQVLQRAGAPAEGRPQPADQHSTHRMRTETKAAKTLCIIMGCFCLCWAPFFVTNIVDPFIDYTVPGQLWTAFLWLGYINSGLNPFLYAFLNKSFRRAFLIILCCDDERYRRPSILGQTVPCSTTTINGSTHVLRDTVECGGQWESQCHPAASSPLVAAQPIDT

Molecule | IC50 [1] | Ki [1] | IC50 [2] | IC50 ([3]; platelet) | IC50 [4] | IC50 ([5]; cho-k1) | pIC50 [3] | pIC50 ([5]; read-out: IC50) | pKi ([5]; read-out: Ki) | Ki [2] | Ki ([3]; platelet) | Ki [4] | Ki ([5]; cho-k1)
NC[C@H]1CC[C@H](C(=O)O)CC1 [TRANEXAMIC ACID] | Not Active | Not Active | Not Active | Not Active | Not Active | Not Active |  |  |  |  |  |  | 
CC1(C)O[C@@H]2C[C@H]3[C@@H]4CCC5=CC(=O)C=C[C@]5(C)[C@@]4(F)[C@@H](O)C[C@]3(C)[C@]2(C(=O)CO)O1 [TRIAMCINOLONE ACETONIDE] | Not Active | Not Active | Not Active | Not Active | Not Active | Not Active |  |  |  |  |  |  | 
NS(=O)(=O)c1cc2c(cc1Cl)NC(C(Cl)Cl)NS2(=O)=O (centres undefined) [TRICHLORMETHIAZIDE] | Not Active | Not Active | Not Active | Not Active | Not Active | Not Active |  |  |  |  |  |  | 
Cc1c(C)c2c(c(C)c1O)CCC(C)(COc1ccc(CC3SC(=O)NC3=O)cc1)O2 (centres undefined) [TROGLITAZONE] | Not Active | Not Active | Not Active |  | Not Active |  | 5.53 | 5.28 | 5.53 |  |  |  | 
N[C@@H]1[C@H]2CN(c3nc4c(cc3F)c(=O)c(C(=O)O)cn4-c3ccc(F)cc3F)C[C@@H]12 [TROVAFLOXACIN] | Not Active | Not Active | Not Active |  | Not Active | Not Active | 5.40 |  |  |  |  |  | 
N#CC(C#N)=Cc1ccc(O)c(O)c1 [TYRPHOSTIN 23] | Not Active | Not Active | Not Active | Not Active | Not Active | Not Active |  |  |  |  |  |  | 
CC[C@]1(O)C[C@H]2CN(CCc3c([nH]c4ccccc34)[C@@](C(=O)OC)(c3cc4c(cc3OC)N(C=O)[C@H]3[C@@](O)(C(=O)OC)[C@H](OC(C)=O)[C@]5(CC)C=CCN6CC[C@]43[C@@H]65)C2)C1 [VINCRISTINE] | Not Active | Not Active | Not Active | Not Active | Not Active | Not Active |  |  |  |  |  |  | 
CCCOc1ccccc1-c1nc2nn[nH]c2c(=O)[nH]1 [ZAPRINAST] | Not Active | Not Active | Not Active | Not Active | Not Active | Not Active |  |  |  |  |  |  | 
SODIUM NITROPRUSSIDE | Not Active | Not Active | Not Active | Not Active | Not Active | Not Active |  |  |  | Not Active | Not Active | Not Active | Not Active
